“And” between values parts separate entries of the source, which are not always exact repeats. Equal values may be shown once. Where a name gives a salt, the structure may show the parent alone. Marks after values point to notes of the source that are not given here.
What was measured:
[1] = test system: gastrointestinal motility; assay: charcoal propulsion test, intestinal motility after single oral dose
Method: A study on the effect on intestinal motility of L-carnitine acid fumarate vs. L-carnitine L-tartrate administered by the oral route to the rat at a single dose, using the charcoal propulsion test, is hereinbelow reported.
35-day old, Hsd Sprague Dawley (SD) male rats (Harlan), weighing 125-150 g were used in the study. The rats were supplied by Harlan Nossan S.r.l., 8, Via E. Fermi, 20050 Correzzana (MI)—Italy.
Eight male rats/group were treated orally with L-Carnitine acid Fumarate, at the doses of 430-855 and 1710 mg/10 ml/kg, and with L-Carnitine L-Tartrate at the doses of 365-730 and 1455 mg/10 ml/kg.
The doses of the two compounds were chosen as equimolar to 250-500 and 1000 mg/kg of L-Carnitine Inner Salt.
Two additional groups, each consisting of eight males, were set up and orally treated respectively with the vehicle (Control group—0.5% Carboxymethylcellulose (MC) in deionized water: 10 ml/kg) or with Atropine (30 mg/10 ml/kg) as reference standard.
The animals were subdivided at random (in number of 4/cage) into the different dosage groups according to the following scheme:
Forty-five minutes after the administration of all the above reported substances, each rat received orally 1.5 ml of a 10% charcoal suspension.
Exactly twenty minutes after dosing with charcoal suspension the rats were sacrificed; then the distance the charcoal meal had travelled throughout the intestine (from the pyloric sphincter towards the caecum) was measured and expressed as a percentage of the total gut length.

[2] = oral intake, dose-related; cited from earlier work
[3] = individual rats, oral 30 mg/10 ml/kg

| Structure (SMILES) | Distance travelled as % of total intestine length (individual rat) [1, 3] | Distance travelled by charcoal (individual rat) [1, 3] | % change from vehicle ([1]; rat, oral 30 mg/10 ml/kg) [%] | change in gastrointestinal motility vs control group ([1]; rat, oral 30 mg/kg) | Distance travelled as % of total intestine length (mean) ([1]; rat, oral single dose 30 mg/10 ml/kg, n=8, p<0.001 vs control) | gastrointestinal adverse effect in users [2] |
| --- | --- | --- | --- | --- | --- | --- |
| CN1[C@@H]2CC[C@H]1C[C@@H](OC(=O)C(CO)c1ccccc1)C2 (stereo partly drawn) [Atropine] | 48.74% and 39.68% and 37.50% and 46.56% and 44.07% and 44.96% and 42.06% and 41.60% | 58 cm (2×) and 50 cm and 45 cm and 61 cm and 52 cm (2×) and 53 cm | −30.87 | statistically highly significant (p<0.001) decrease in gastrointestinal motility | 43.15 ▴ % | – |
| C[N+](C)(C)C[C@H](O)CC(=O)[O-] [L-carnitine, L-carnitine inner salt] | – | – | – | – | – | episodes of diarrhoea have been frequently reported |
